From patent US9072774B2, “Porphyrin nanovesicles” (UNIVERSITY HEALTH NETWORK, priority 2009, dated 2015)

Assay: Differential scanning calorimetry
Assay type: physicochemical
Details: 5 mg/ml in PBS, scan rate 1° C./min
Protocol: Samples were placed in a vacuum for 30 min prior to measurement. A scan rate of 1° C./min was used for all samples. PBS was used as the reference and one scan cycle of PBS was used as the baseline. For each lipid, three cooling and heating scans were performed and the results averaged to determine the phase transition temperature of the lipids.

`CCCCCCCCCCCCCC(=O)OC[C@H](COP(=O)([O-])OCC[N+](C)(C)C)OC(=O)CCCCCCCCCCCCC` [DMPC] showed a transition temperature of 24 °C.
